Results reported in article PMC6021035, “Insights into biological activity of ureidoamides with primaquine and amino acid moieties” (Journal of Enzyme Inhibition and Medicinal Chemistry, 2018).
In brackets after ≈: the same amount, converted by molar mass.

Columns and labels:
Type in all cases: cell-based
[1] = tested on: Aspergillus niger ATCC 16404; assay: MIC determination (broth micro-dilution); conditions: ATCC16404
Description: (§1) Before analysis, compounds 5a–f were dissolved in 96% ethanol in a concentration of 2 mg/ml as stock solutions. Inoculums were prepared with fresh cultures of microbial strains, cultured on tryptic-soy agar or Sabouraud 2% (m/v) dextrose agar for 18 h (48–72 h for fungi) at 30 °C with physiological saline containing approximately […]. Inoculum density (0.5 McFarland units) was adjusted with a bio Mériex (France) densitometer. Minimum inhibitory concentration (MIC) was determined by the twofold micro-dilution method in Mu¨ller–Hinton broth for bacterial strains and RPMI 1640 + 2% m/v dextrose for fungi according to the EUCAST recommendations in a sterile 96-well flat-bottom plastic tissue culture plate. MIC was determined using a linear regression curve after incubation of compounds and reading the optical density at 570 nm using an iEMS microplate reader. […] All tests were performed in triplicate and expressed as the mean.

[2] = tested on: Bacillus cereus ATCC 11778; assay: MIC determination (broth micro-dilution); conditions: ATCC11778
Description: as §1

[3] = tested on: Bacillus subtilis ATCC 6633; assay: MIC determination (broth micro-dilution); conditions: ATCC6633
Description: as §1

[4] = tested on: Burkholderia caepacia ATCC 25416; assay: MIC determination (broth micro-dilution); conditions: ATCC25416
Description: as §1

[5] = tested on: Candida albicans ATCC 10231; assay: MIC determination (broth micro-dilution); conditions: ATCC10231
Description: as §1

[6] = tested on: Candida albicans ATCC 90028; assay: MIC determination (broth micro-dilution); conditions: ATCC90028
Description: as §1

Candida kefyr ATCC 2512 [7] = assay: MIC determination (broth micro-dilution); conditions: Kluyveromyces marxianus, ATCC2512
Description: as §1

[8] = tested on: Candida krusei ATCC 14243; assay: MIC determination (broth micro-dilution); conditions: Pichia kudriavzevii, ATCC14243
Description: as §1

[9] = tested on: Candida parapsylosis ATCC 22019; assay: MIC determination (broth micro-dilution); conditions: ATCC22019
Description: as §1

[10] = tested on: Candida tropicalis ATCC 750; assay: MIC determination (broth micro-dilution); conditions: ATCC750
Description: as §1

[11] = tested on: Enterococcus faecalis ATCC 29212; assay: MIC determination (broth micro-dilution); conditions: ATCC29212
Description: as §1

[12] = tested on: Enterococcus hyrae ATCC 8043; assay: MIC determination (broth micro-dilution); conditions: ATCC8043
Description: as §1

[13] = tested on: Escherichia coli ATCC 10536; assay: MIC determination (broth micro-dilution); conditions: ATCC10536
Description: as §1

[14] = tested on: Escherichia coli ATCC 8739; assay: MIC determination (broth micro-dilution); conditions: ATCC8739
Description: as §1

[15] = tested on: Issatchenkia orientalis Kudrjanzev ATCC 6258; assay: MIC determination (broth micro-dilution); conditions: Pichia kudriavzevii, ATCC6258
Description: as §1

[16] = tested on: Kocuria rhizophila ATCC 9341; assay: MIC determination (broth micro-dilution); conditions: ATCC9341
Description: as §1

[17] = tested on: Pseudomonas aeruginosa ATCC 27853; assay: MIC determination (broth micro-dilution); conditions: ATCC27853
Description: as §1

[18] = tested on: Pseudomonas aeruginosa ATCC 9027; assay: MIC determination (broth micro-dilution); conditions: ATCC9027
Description: as §1

[19] = tested on: Staphylococcus aureus ATCC 25213; assay: MIC determination (broth micro-dilution); conditions: ATCC25213
Description: as §1

[20] = tested on: Staphylococcus aureus ATCC 25923; assay: MIC determination (broth micro-dilution); conditions: ATCC25923
Description: as §1

[21] = tested on: Staphylococcus aureus ATCC 6538; assay: MIC determination (broth micro-dilution); conditions: ATCC6538
Description: as §1

Candida kefyr ATCC 2512 [22] = assay: Minimum biofilm eradication assay; conditions: Kluyveromyces marxianus, ATCC2512, 48 h, read-out: MBEC
Description: (§2) We tested the susceptibility of different bacterial and yeast strains to compounds 5a–f by determining the minimum biofilm eradication concentration (MBEC). The test was performed in a sterile 96-well flat-bottom plastic tissue culture plate (TPP, Switzerland). Each well was filled with 100 µl of bacterial (10^7 CFUs/ml) or yeast (5 × 10^6 CFUs/ml) suspension. When the possibility of inhibition of yeast biofilm formation was tested, the wells were pre-treated with FBS (250 µl per well). Negative controls contained broth only. Positive controls were performed using standard antibacterial and antifungal drugs gentamycin and amphotericin B, respectively. The plates were covered and incubated aerobically for 24 h (bacteria) or 48 h (yeast) at 37 °C. Following the incubation period, each well was aspirated and washed three times with 250 µl of PBS and vigorously shaken in order to remove all non-adherent bacteria/yeast. The remaining attached cells were fixed with methanol (15 min) and the plates were left to dry overnight. The formed biofilm was stained with crystal violet (1%, 5 min). Excess stain was rinsed by placing the plate under running tap water and the plates were left to dry for 24 h. Adherent cells were resolubilized with acetic acid (33%, v/v). The optical density of each well was measured at 570 nm using a Multiscan plate reader. The MBEC value represents the lowest compound dilution at which microorganisms fail to grow.

[23] = tested on: Candida krusei ATCC 14243; assay: Minimum biofilm eradication assay; conditions: Pichia kudriavzevii, ATCC14243, 48 h, read-out: MBEC
Description: as §2

[24] = tested on: Candida parapsylosis ATCC 22019; assay: Minimum biofilm eradication assay
Description: as §2

[25] = tested on: Candida tropicalis ATCC 750; assay: Minimum biofilm eradication assay; conditions: ATCC750, 48 h, read-out: MBEC
Description: as §2

[26] = tested on: Enterococcus faecalis ATCC 29212; assay: Minimum biofilm eradication assay
Description: as §2

[27] = tested on: Escherichia coli ATCC 10536; assay: Minimum biofilm eradication assay
Description: as §2

[28] = tested on: Escherichia coli ATCC 8739; assay: Minimum biofilm eradication assay
Description: as §2

[29] = tested on: Pseudomonas aeruginosa ATCC 27853; assay: Minimum biofilm eradication assay
Description: as §2

[30] = tested on: Pseudomonas aeruginosa ATCC 9027; assay: Minimum biofilm eradication assay
Description: as §2

[31] = tested on: Staphylococcus aureus ATCC 25213; assay: Minimum biofilm eradication assay
Description: as §2

[32] = tested on: Staphylococcus aureus ATCC 6538; assay: Minimum biofilm eradication assay
Description: as §2

MIC [1] | MIC [2] | MIC [3] | MIC [4] | MIC [5] | MIC [6] | MIC (Candida kefyr ATCC 2512 [7]) | MIC [8] | MIC [9] | MIC [10] | MIC [11] | MIC [12] | MIC [13] | MIC [14] | MIC [15] | MIC [16] | MIC [17] | MIC [18] | MIC [19] | MIC [20] | SMILES | other results
> 100 µg/mL | > 100 µg/mL | > 100 µg/mL | > 100 µg/mL | > 100 µg/mL | > 100 µg/mL | > 100 µg/mL | > 100 µg/mL | > 100 µg/mL | > 100 µg/mL | > 100 µg/mL | > 100 µg/mL | > 100 µg/mL | > 100 µg/mL | > 100 µg/mL | > 100 µg/mL | > 100 µg/mL | > 100 µg/mL | > 100 µg/mL | > 100 µg/mL | COc1ccc(C(=NNC(=O)C(NC(=O)NCCCC(C)Nc2cc(OC)cc3cccnc23)c2ccc(Cl)cc2)c2ccccc2)cc1 (stereo not shown) [Compound 5f, 3-[(4-chlorophenyl)({N'-[(4-methoxyphenyl)(phenyl)methylidene]hydrazinecarbonyl})methyl]-1-{4-[(6-methoxyquinolin-8-yl)amino]pentyl}urea] | MIC [21]: > 100 µg/mL; minimal effective concentration (Candida kefyr ATCC 2512 [22]): 6.25 µg/mL; minimal effective concentration [23]: > 100 µg/mL; MBEC [24]: >100 µg/mL; minimal effective concentration [25]: > 100 µg/mL; MBEC [26]: >100 µg/mL; MBEC [27]: 12.5 µg/mL; MBEC [28]: 6.25 µg/mL; MBEC [29]: >100 µg/mL; MBEC [30]: >100 µg/mL; MBEC [31]: >100 µg/mL; MBEC [32]: >100 µg/mL
> 100 µg/mL | 50 µg/mL (≈ 78.6 µM) | 65 µg/mL (≈ 102 µM) | > 100 µg/mL | > 100 µg/mL | > 100 µg/mL | > 100 µg/mL | > 100 µg/mL | > 100 µg/mL | > 100 µg/mL | > 100 µg/mL | > 100 µg/mL | 60 µg/mL (≈ 94.3 µM) | 65 µg/mL (≈ 102 µM) | > 100 µg/mL | > 100 µg/mL | 50 µg/mL (≈ 78.6 µM) | 65 µg/mL (≈ 102 µM) | 12.5 µg/mL (≈ 19.6 µM) | 25 µg/mL (≈ 39.3 µM) | COc1cc(NC(C)CCCNC(=O)NC(C(=O)NC(c2ccccc2)c2ccccc2)c2ccc(Cl)cc2)c2ncccc2c1 (stereo not shown) [Compound 5d, 2–(4-chlorophenyl)-N-(diphenylmethyl)-2-[({4-[(6-methoxyquinolin-8-yl)amino]pentyl}carbamoyl)amino]acetamide] | MIC [21]: 25 µg/mL (≈ 39.3 µM); minimal effective concentration (Candida kefyr ATCC 2512 [22]): 25 µg/mL; minimal effective concentration [23]: > 100 µg/mL; MBEC [24]: >100 µg/mL; minimal effective concentration [25]: > 100 µg/mL; MBEC [26]: >100 µg/mL; MBEC [27]: 25 µg/mL; MBEC [28]: 25 µg/mL; MBEC [29]: 50 µg/mL; MBEC [30]: 50 µg/mL; MBEC [31]: 25 µg/mL; MBEC [32]: 25 µg/mL
